Data on nine compounds can be found in article PMC2248166, “Quantitative peptide binding motifs for 19 human and mouse MHC class I molecules derived using positional scanning combinatorial peptide libraries” (Immunome Research, 2008).

Among the targets are HLA B*5301 (Homo sapiens, UniProt P01889, A329T/A93T/A95T/C349S/D201E/D98Y/E176V/E187L/E204Q/E69T/G107R/I218V/K202T/L105A/L119I/N104I/Q94N/R106L/R155S/R180L/S101N/S121R/S35A/S48A/T118I/V127L/V306I/V36M/Y140S/Y91F); H-2 D^d (Mus musculus, UniProt P01900); HLA B*5802 (Homo sapiens, UniProt P01889, A329T/C349S/D201E/D98Y/E176V/E187L/E204Q/E69T/G107R/I218V/I90N/K202T/L105A/N104I/N87E/Q89R/Q94S/R106L/R155S/R180L/R86G/S101N/S121W/S35A/S48A/V127L/V306I/V36M/Y140S/Y91M); HLA A*6802 (Homo sapiens, UniProt P04439, A269V/D140Y/D185E/E176V/E277Q/E87N/F33Y/G231S/I121R/I166T/I218V/L180W/L300P/L318F/N151K/P208A/P217A/Q86R/R138H/R169H/S129P/T345S/V36M); H-2 K^d (Mus musculus, UniProt P01902); HLA B*3501 (Homo sapiens, UniProt P01889, A329T/A93T/A95T/C349S/D201E/D98Y/E176V/E187L/E204Q/E69T/I218V/K202T/L119I/Q94N/R155S/R180L/S121R/S35A/S48A/T118I/V127L/V306I/V36M/Y140S/Y91F); H-2 D^b (Mus musculus, UniProt P01899); H-2 K^k (Mus musculus, UniProt P04223); HLA B*5101 (Homo sapiens, UniProt P01889, A329T/A93T/A95T/C349S/D138N/D201E/D98Y/E187L/E204Q/E69T/G107R/I218V/K202T/L105A/L119W/N104I/Q94N/R106L/R155S/R180L/S101N/S121T/S35A/S48A/V306I/V36M/Y195H/Y91F); HLA B*5401 (Homo sapiens, UniProt P01889, A329T/C349S/D138N/D201E/E176V/E187T/E204Q/E69G/I76V/K202T/L119W/R155S/R180L/S121T/S35A/S48A/V127L/V306I/V36M/Y140L); HLA B*5801 (Homo sapiens, UniProt P01889, A329T/C349S/D201E/D98Y/E176V/E187L/E204Q/E69T/G107R/I218V/I90N/K202T/L105A/L119I/N104I/N87E/Q89R/Q94S/R106L/R155S/R180L/R86G/S101N/S121R/S35A/S48A/T118I/V127L/V306I/V36M/Y140S/Y91M).

Holding throughout (type): binding
For another assay, the target named is HLA A*3001 (Homo sapiens, UniProt P04439, D140H/D185E/E176W/F33S/G80R/H175R/K168Q/R138E/R41S). Briefly: biochemical.
Another assay has as its target HLA B*0801 (Homo sapiens, UniProt P01889, A93T/A95T/D138N/E176V/E187T/K202T/Q94N/R180D/S35A/V36M/Y33D/Y91F). The assay is described as follows: biochemical.
The target of another assay is HLA B*1503 (Homo sapiens, UniProt P01889, A329T/A93T/A95T/C349S/D201E/D98Y/E187L/E204Q/K202T/N87E/Q94N/R155S/R180L/S121R/S35A/V306I/V36M/Y140S/Y91S). The assay is described as follows: biochemical.
Another assay addresses HLA A*3201 (Homo sapiens, UniProt P04439, A270S/D101S/D185E/E176V/E277Q/F133L/G103R/G107R/G231S/H175R/I121M/I218V/I322F/K168Q/L105A/L300P/L318F/M331R/P208A/P217A/Q94H/R106L/R138Q/S129P/T104I/T323A/T345S/V100E/V321M/V358M). Briefly: biochemical.
In the next assay the target is HLA B*1501 (Homo sapiens, UniProt P01889, A329T/A93T/A95T/C349S/D201E/D98Y/E187L/E204Q/E69M/E70A/K202T/N87E/Q94N/R155S/R180W/S121R/S35A/S48A/V306I/V36M/Y140S/Y91S). The assay is described as follows: biochemical.

pIC50: −log10 of the molar value. Where a SMILES comes first, the peptide text is derived from it.

Sequence of H-2 K^d (P01887 21-119): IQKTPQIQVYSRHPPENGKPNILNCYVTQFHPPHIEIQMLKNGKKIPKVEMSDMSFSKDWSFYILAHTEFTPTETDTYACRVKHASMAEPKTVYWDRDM
Sequence of H-2 K^d (P01902 22-368): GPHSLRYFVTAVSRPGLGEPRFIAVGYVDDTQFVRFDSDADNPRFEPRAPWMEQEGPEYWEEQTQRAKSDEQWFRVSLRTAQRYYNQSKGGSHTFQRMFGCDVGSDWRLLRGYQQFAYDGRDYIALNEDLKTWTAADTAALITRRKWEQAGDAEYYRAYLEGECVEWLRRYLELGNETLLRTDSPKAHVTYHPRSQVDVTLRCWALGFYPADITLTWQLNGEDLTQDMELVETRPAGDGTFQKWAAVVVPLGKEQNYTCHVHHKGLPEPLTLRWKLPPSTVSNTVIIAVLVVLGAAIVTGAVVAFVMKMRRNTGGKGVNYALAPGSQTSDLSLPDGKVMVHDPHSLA
Sequence of H-2 K^k (P01887 21-119): as the sequence (P01887 21-119) above
Sequence of H-2 K^k (P04223 22-369): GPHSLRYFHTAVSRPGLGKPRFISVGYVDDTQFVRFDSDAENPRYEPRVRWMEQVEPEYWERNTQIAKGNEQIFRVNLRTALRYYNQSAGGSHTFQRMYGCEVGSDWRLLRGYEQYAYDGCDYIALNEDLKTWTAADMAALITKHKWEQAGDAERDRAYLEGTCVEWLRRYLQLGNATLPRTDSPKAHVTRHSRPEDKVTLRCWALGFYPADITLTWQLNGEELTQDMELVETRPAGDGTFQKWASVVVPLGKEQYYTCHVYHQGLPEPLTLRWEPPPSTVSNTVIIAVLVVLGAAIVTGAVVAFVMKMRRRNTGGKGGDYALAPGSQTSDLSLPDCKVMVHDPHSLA
Sequence of H-2 D^b (P01887 21-119): as the sequence (P01887 21-119) above
Sequence of H-2 D^b (P01899 25-362): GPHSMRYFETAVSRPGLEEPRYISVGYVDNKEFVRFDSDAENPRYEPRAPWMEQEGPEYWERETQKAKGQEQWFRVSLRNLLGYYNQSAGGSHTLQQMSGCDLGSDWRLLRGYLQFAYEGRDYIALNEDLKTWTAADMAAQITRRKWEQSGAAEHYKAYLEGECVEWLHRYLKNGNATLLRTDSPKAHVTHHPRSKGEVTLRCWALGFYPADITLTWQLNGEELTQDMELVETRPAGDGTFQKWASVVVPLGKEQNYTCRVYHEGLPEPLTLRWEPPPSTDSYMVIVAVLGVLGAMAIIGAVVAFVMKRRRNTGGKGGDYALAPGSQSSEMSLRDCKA
Sequence of H-2 D^d (P01900 whole entry, looked up): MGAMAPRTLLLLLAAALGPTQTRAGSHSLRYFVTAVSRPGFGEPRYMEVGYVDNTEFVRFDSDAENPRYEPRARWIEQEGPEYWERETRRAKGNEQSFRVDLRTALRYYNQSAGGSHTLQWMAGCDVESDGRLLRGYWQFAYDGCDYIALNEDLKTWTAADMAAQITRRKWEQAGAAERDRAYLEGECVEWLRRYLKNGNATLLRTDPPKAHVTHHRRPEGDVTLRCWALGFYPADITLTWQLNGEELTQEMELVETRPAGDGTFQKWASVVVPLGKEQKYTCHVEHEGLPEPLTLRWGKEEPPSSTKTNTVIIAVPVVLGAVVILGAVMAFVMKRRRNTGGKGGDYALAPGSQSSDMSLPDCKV

For XXXXXXXFX [3064.0145], the “Normalized average relative binding affinity(ARB)” value at HLA B*5301 was 0.46; at HLA A*3001 it was 0.76; on HLA B*0801 it was 0.32; at H-2 D^d it was 0.75; on HLA B*5802 it was 0.33; at HLA A*6802 it was 0.31. For the same compound, the “Normalized average relative binding affinity(ARB)” value is reported as 0.66 on H-2 K^d; 0.13 at HLA B*3501; 0.79 on H-2 D^b; 0.21 at HLA B*1503; 1.0 on H-2 K^k; 1.0 on HLA B*5101. The “Normalized average relative binding affinity(ARB)” value at HLA A*3201 worked out at 0.24; on HLA B*1501 it was 0.32; on HLA B*5401, 0.080; at HLA B*5801 it was 1.0.
As to XXXXNXXXX [3064.0092], the “Normalized average relative binding affinity(ARB)” value came to 0.17 at HLA B*5301; 0.12 at HLA A*3001; 0.037 at HLA B*0801; 0.19 at H-2 D^d; 0.31 on HLA B*5802; 0.30 at HLA A*6802. Also, the “Normalized average relative binding affinity(ARB)” value amounted to 0.21 at H-2 K^d; 1.0 on HLA B*3501; 1.0 on H-2 D^b; 0.26 on HLA B*1503; 0.090 on H-2 K^k; 0.40 at HLA B*5101. Besides, the “Normalized average relative binding affinity(ARB)” value on HLA A*3201 is reported as 0.16; on HLA B*1501, 0.56; at HLA B*5401, 0.34; on HLA B*5801, 0.13.
On to XXXXFXXXX [3064.0085], for which the “Normalized average relative binding affinity(ARB)” value was 1.0 on HLA B*5301; 0.38 at HLA A*3001; 0.21 on HLA B*0801; 0.16 at H-2 D^d; 0.089 at HLA B*5802; 0.87 at HLA A*6802. In addition, the “Normalized average relative binding affinity(ARB)” value is listed as 0.13 at H-2 K^d; 0.63 on HLA B*3501; 0.044 at H-2 D^b; 0.78 at HLA B*1503; 0.19 at H-2 K^k; 0.29 at HLA B*5101. Further, the “Normalized average relative binding affinity(ARB)” value at HLA A*3201 was 1.0; at HLA B*1501, 0.52; at HLA B*5401 it was 1.0; at HLA B*5801, 0.43.
Regarding `CC(C)C[C@H](NC(=O)[C@@H](N)CC(C)C)C(=O)N[C@@H](Cc1ccccc1)C(=O)N[C@@H](Cc1ccc(O)cc1)C(=O)N[C@H](C(=O)N[C@@H](CCCNC(=N)N)C(=O)N[C@@H](Cc1c[nH]cn1)C(=O)N[C@@H](CCCNC(=N)N)C(=O)N[C@@H](Cc1ccccc1)C(=O)O)[C@@H](C)O` [3102.1058] (H-LLFYTRHRF-OH), the pIC50 was 7.34 at HLA B*0801, 9.68 against HLA B*1503, 8.59 against HLA A*3201 and 9.07 on HLA B*1501.
Regarding `CSCC[C@H](NC(=O)[C@@H](NC(=O)[C@@H](N)CCCCN)[C@@H](C)O)C(=O)N[C@@H](C)C(=O)N[C@H](C(=O)N[C@H](C(=O)N[C@@H](Cc1ccc(O)cc1)C(=O)N[C@@H](CCC(=O)O)C(=O)N[C@@H](CC(C)C)C(=O)O)[C@@H](C)O)C(C)C` [3102.0293] (H-KTMAVTYEL-OH), the pIC50 was 7.72 on HLA B*0801, 9.24 against HLA A*3201 and 8.26 at HLA B*1501.
In the case of `CC(C)C[C@H](NC(=O)[C@H](CCCCN)NC(=O)[C@H](CCCCN)NC(=O)[C@H](Cc1ccc(O)cc1)NC(=O)[C@H](CC(C)C)NC(=O)[C@@H](NC(=O)[C@@H](N)Cc1ccc(O)cc1)[C@@H](C)O)C(=O)N[C@@H](CO)C(=O)N[C@@H](Cc1ccccc1)C(=O)O` [3102.0333] (H-YTLYKKLSF-OH), the pIC50 at HLA A*3001 was 7.64; at HLA B*0801, 7.80; against HLA A*3201, 6.71; against HLA B*1501, 7.85.
In the case of `CC(C)C[C@H](NC(=O)[C@H](CC(C)C)NC(=O)[C@@H](N)CCCCN)C(=O)N[C@@H](CO)C(=O)N[C@@H](Cc1c[nH]cn1)C(=O)N[C@@H](Cc1ccccc1)C(=O)N[C@@H](Cc1ccc(O)cc1)C(=O)N1CCC[C@H]1C(=O)N[C@@H](C)C(=O)O` [3102.0665] (H-KLLSHFYPA-OH), the pIC50 against HLA B*0801 was 7.09; against HLA B*1503, 8.27; at HLA A*3201, 6.89; at HLA B*1501 it was 7.41.
In the case of `CC[C@H](C)[C@H](NC(=O)[C@H](CO)NC(=O)[C@H](C)NC(=O)[C@@H](NC(=O)[C@@H](NC(=O)[C@H](CC(N)=O)NC(=O)[C@H](CCCNC(=N)N)NC(=O)[C@@H](NC(=O)[C@@H](N)CCCNC(=N)N)C(C)C)[C@@H](C)CC)[C@@H](C)CC)C(=O)O` [3102.0367] (H-RVRNIIASI-OH), the pIC50 is 10.00 at HLA A*3001, 7.66 at HLA B*0801 and 9.00 against HLA A*3201.
With `CC(C)C[C@H](NC(=O)[C@@H]1CCCN1C(=O)[C@H](CO)NC(=O)[C@H](Cc1ccccc1)NC(=O)[C@H](Cc1ccc(O)cc1)NC(=O)[C@H](CCCCN)NC(=O)[C@H](C)NC(=O)[C@@H](NC(=O)[C@H](C)N)C(C)C)C(=O)O` [3102.0978] (H-AVAKYFSPL-OH), the pIC50 at HLA B*0801 is 6.72; against HLA A*3201, 6.55; against HLA B*1501, 7.80.
